{"source": "patent US20250026725A1", "about": "“HYDRATE CRYSTAL OF 5-CHLORO-4-(3-CHLORO-4- METHYLPHENYL)-1H-IMIDAZOLE-2-CARBONITRILE” (ISHIHARA SANGYO KAISHA, LTD., priority 2021, published 2025)", "key": {"Moisture absorption test": {"test": "Moisture absorption test", "format": "physicochemical", "protocol": "An anhydrous crystal sample was placed in a container (glass weighing bottle or paper bag) in such a manner that it was in direct contact with the damp. […] In addition, a sample for the hydrate crystal (Production Example 1) was also preserved at 60° C./80% RH, and the change in moisture content was observed through the change in weight or Karl Fischer moisture measurement."}, "[1]": {"tested_on": "Malassezia pachydermatis (IFM56528)", "test": "Antifungal activity test, minimum fungicidal concentration (MFC100)", "format": "cell-based", "details": "1 minute contact, culture 32° C. for 72 hours, read-out: Minimal fungicidal concentration (MFC100)", "protocol": "Malassezia pachydermatis that had been cultured on a Sabouraud medium (1% peptone, 4% […], 1.5% agar) for 5 to 7 days was suspended in physiological saline to prepare so as to have an absorbance of 0.025 at 600 nm. The compound under test dissolved in DMSO was added thereto so as to have final concentrations of 200, 100, 50, and 25 ppm. 1 minute later, 10 μL of suspension and 10 mL of physiological saline were added to a syringe and stirred, and then the mixture was filtered and washed by connecting to a 37 mm quality monitor (manufactured by Pall Corporation) and washed. As such, membrane filters were permeated with the Sabouraud medium, culturing was performed at 32° C. for 72 hours, the presence or absence of the development of colonies was examined to determine a minimum fungicidal concentration (MFC100). A minimum fungicidal concentration (MFC100) for Malassezia pachydermatis (IFM56528) was determined in the same method as in Test Example 9 except that the hydrate crystal (Production Example 2) was used as the compound under test."}, "[2]": {"test": "Test of triboelectrification properties", "format": "physicochemical", "details": "25° C. and 50% RH", "protocol": "First, the sample was loaded into a levelled stainless steel petri dish having φ50 mm×a height of 15 mm, and then it was statically eliminated with a static eliminator (STABLO AP, manufactured by SHIMADZU CORPORATION). The surface potential of the sample was measured with a surface electrometer (SV-77A, manufactured by NIPPON STATIC CO., LTD.) that had previously been zero-point adjusted, to confirm that it was statically eliminated (within −1 to +1 kV). Next, the sample surface of the petri dish loaded with the sample was scraped back and forth 20 times with a stainless steel metal plate for 10 seconds to charge the sample surface. After that, the petri dish loaded with the charged sample was placed on a metal plate (30 cm×30 cm) connected with a ground wire. The surface potential of the sample was measured over time for 20 minutes with the above surface electrometer. The triboelectrification properties were evaluated from the initial surface potential. In addition, the retention rate was calculated from the surface potential after 20 minutes and the initial surface potential to evaluate charge attenuation properties. Note that the test was conducted in an electrostatic measurement chamber (Tabai ESPEC CORP.) set to 25° C. and 50% RH, and the surface potential measurement was conducted at a distance of 1 cm from the sample surface."}, "[3]": {"test": "Karl Fischer moisture content measurement (volumetric titration method)", "format": "physicochemical", "details": "atmosphere of 25° C., as obtained", "protocol": "The moisture content rates of the hydrate crystals obtained in Production Examples 1 and 2, and the anhydrous crystals used as a raw material in Production Example 1 were measured with a Karl Fischer moisture meter (CA-310, manufactured by Nittoseiko Analytech Co., Ltd.). The test was conducted in conformance with the description in The Japanese Pharmacopoeia, 18th Edition, “2.48 Water Determination (Karl Fischer Method)”, Volumetric titration. The measurement was performed in an atmosphere of 25° C., with the conditions set to a forced delay time of 2 minutes after sample administration, a minimum amount to be titrated of 2 μL, and an end point voltage of 140 mV. More specifically, it was as follows. First, into a measuring flask, methanol for moisture measurement (Aquamicron Dehydrated Solvent GEX, manufactured by Mitsubishi Chemical Corporation) was loaded, and 30 mg of water was added thereto to titrate the mixture with a Karl Fischer reagent (Aquamicron SS-Z, manufactured by Mitsubishi Chemical Corporation). After titration, a titer (mg/mL) of the reagent was determined from the amount titrated. Next, about 0.1 g of a measurement sample was precisely weighed and added into the measuring flask to titrate the mixture with a Karl Fischer reagent. The moisture content (w/w %) in the sample was calculated from the amount titrated and the previously determined titer."}, "[4]": {"tested_on": "Malassezia restricta (IFM55992)", "test": "Antifungal activity test, minimum fungicidal concentration (MFC100)", "format": "cell-based", "details": "1 minute contact, MLNA medium 32° C. for 72 hours, read-out: Minimal fungicidal concentration (MFC100)", "protocol": "A fungus of Malassezia (Malassezia restricta) that had been cultured on a CHROMagar (trademark) Malassezia/Candida raw medium (peptone, specialized enzyme-substrate mixture, chloramphenicol, olive oil, agar, manufactured by KANTO CHEMICAL CO., INC.) for 5 to 7 days was suspended in physiological saline to prepare so as to have an absorbance of 0.025 at 600 nm. The compound under test dissolved in DMSO was added thereto so as to have final concentrations of 200, 100, 50, and 25 ppm. 1 minute later, 10 μL of suspension and 10 mL of physiological saline were added to a syringe and stirred, and then the mixture was filtered by connecting to a 37 mm quality monitor (manufactured by Pall Corporation) and washed twice with 10 ml of physiological saline. The membrane filters were removed from the quality monitor, and placed and cultured on a Leeming & Notman agar Modified medium (MLNA medium) (peptone, glucose, yeast extract, dried bovine bile, glycerol, glycerin stearate, Tween 60, olive oil, agar) at 32° C. for 72 hours, and the presence or absence of the development of colonies was examined to determine a minimum fungicidal concentration MFC100). A minimum fungicidal concentration (MFC100) for Malassezia restricta (IFM55992) was determined in the same method as in Test Example 11 except that the hydrate crystal (Production Example 2) was used as the compound under test."}, "[5]": {"details": "40° C./75% RH, weighing bottle, 14 days"}, "[6]": {"details": "40° C./75% RH, weighing bottle, 28 days"}, "[7]": {"details": "40° C./75% RH, weighing bottle, 28 days, listed as Anhydrate crystal"}}, "data": [{"smiles": "Cc1ccc(-c2nc(C#N)[nH]c2Cl)cc1Cl", "note": "[Anhydrous crystal, 5-chloro-4-(3-chloro-4-methylphenyl)-1H-imidazole-2-carbonitrile]", "values": [{"measurement": "Moisture content", "setting": "Moisture absorption test; 25° C./80% RH, paper bag, 0 days", "result": 0.1, "unit": "%"}, {"measurement": "Weight change", "setting": "Moisture absorption test; 25° C./80% RH, paper bag, 14 days", "result": 0.6, "unit": "%"}, {"measurement": "Weight change", "setting": "Moisture absorption test; 25° C./80% RH, paper bag, 28 days", "result": 2.2, "unit": "%"}, {"measurement": "Weight change", "setting": "Moisture absorption test; 25° C./80% RH, paper bag, 35 days", "result": 3.3, "unit": "%"}, {"measurement": "Weight change", "setting": "Moisture absorption test; 25° C./80% RH, paper bag, 43 days", "result": 4.2, "unit": "%"}, {"measurement": "Weight change", "setting": "Moisture absorption test; 25° C./80% RH, paper bag, 49 days", "result": 4.7, "unit": "%"}, {"measurement": "Weight change", "setting": "Moisture absorption test; 25° C./80% RH, paper bag, 49 days, listed as Anhydrate crystal", "result": 4.7, "unit": "%"}, {"measurement": "Moisture content", "setting": "Moisture absorption test; 40° C./75% RH, weighing bottle, 0 days", "result": 0.1, "unit": "%"}, {"measurement": "Weight change", "setting": "Moisture absorption test; 40° C./75% RH, weighing bottle, 7 days", "result": 3.5, "unit": "%"}, {"measurement": "Moisture content", "setting": "Moisture absorption test; [5]", "result": 5.7, "unit": "%"}, {"measurement": "Weight change", "setting": "Moisture absorption test; [5]", "result": 5.0, "unit": "%"}, {"measurement": "Weight change", "setting": "Moisture absorption test; 40° C./75% RH, weighing bottle, 21 days", "result": 6.4, "unit": "%"}, {"measurement": "Moisture content", "setting": "Moisture absorption test; [6]", "result": 6.1, "unit": "%"}, {"measurement": "Weight change", "setting": "Moisture absorption test; [6]", "result": 6.7, "unit": "%"}, {"measurement": "Moisture content", "setting": "Moisture absorption test; [7]", "result": 6.1, "unit": "%"}, {"measurement": "Weight change", "setting": "Moisture absorption test; [7]", "result": 6.7, "unit": "%"}, {"measurement": "MFC", "setting": "[1]", "result": 50, "unit": "µg/mL"}, {"measurement": "Electrification voltage", "setting": "[2]; 0 minutes after charging, listed as Anhydrate crystal", "result": "−5.42", "unit": "kv"}, {"measurement": "Electrification voltage", "setting": "[2]; 20 minutes after charging, listed as Anhydrate crystal", "result": "−5.39", "unit": "kv"}, {"measurement": "Decrease of potential retention rate", "setting": "[2]; at 20 minutes later", "result": "almost no change"}, {"measurement": "Retention rate", "setting": "[2]; surface potential after 20 minutes vs initial, listed as Anhydrate crystal", "result": 99.4, "unit": "%"}, {"measurement": "Karl Fischer moisture content", "setting": "[3]", "result": 0.1, "unit": "wt %"}, {"measurement": "MFC", "setting": "[4]", "result": 200, "unit": "µg/mL"}]}]}
